Measurements published in PubChem BioAssay (NCI).
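Five compound concentrations were applied to cells in 96-well plates for 48 hours; endpoints were derived by simple linear interpolation of the resulting dose-response curve. Abbreviation: GI50, concentration required for 50% inhibition of growth. The concentration for full growth arrest is given as TGI.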

Key:
Experiment in all cases: NCI tumour cell line growth inhibition, 48 h
[1] = tested on: 786-0 renal
[2] = tested on: A498 renal
[3] = tested on: A549 NSCLC
[4] = tested on: ACHN renal
[5] = tested on: BT-549 breast
[6] = tested on: CAKI-1 renal
[7] = tested on: CCRF-CEM leukemia
[8] = tested on: COLO 205 colon
[9] = tested on: DU-145 prostate
[10] = tested on: EKVX NSCLC
[11] = tested on: HCC-2998 colon
[12] = tested on: HCT-116 colon
[13] = tested on: HCT-15 colon
[14] = tested on: HL-60(TB) leukemia
[15] = tested on: HOP-62 NSCLC
[16] = tested on: HOP-92 NSCLC
[17] = tested on: HS 578T breast
[18] = tested on: HT29 colon
[19] = tested on: IGROV1 ovarian
[20] = tested on: K-562 leukemia
[21] = tested on: KM12 colon
[22] = tested on: M14 melanoma
[23] = tested on: MALME-3M melanoma
[24] = tested on: MCF7 breast
[25] = tested on: MDA-MB-231 breast
[26] = tested on: MDA-MB-435
[27] = tested on: MOLT-4 leukemia
[28] = tested on: NCI-H226 lung
[29] = tested on: NCI-H23 lung
[30] = tested on: NCI-H460 lung
[31] = tested on: NCI-H522 lung
[32] = tested on: NCI/ADR-RES ovarian
[33] = tested on: OVCAR-4 ovarian
[34] = tested on: OVCAR-5 ovarian
[35] = tested on: OVCAR-8 ovarian
[36] = tested on: PC-3 prostate
[37] = tested on: RPMI-8226 leukemia
[38] = tested on: RXF 393 renal
[39] = tested on: SF-268 CNS
[40] = tested on: SF-295 CNS
[41] = tested on: SF-539 CNS
[42] = tested on: SK-MEL-2 melanoma
[43] = tested on: SK-MEL-28 melanoma
[44] = tested on: SK-MEL-5 melanoma
[45] = tested on: SK-OV-3 ovarian
[46] = tested on: SN12C renal
[47] = tested on: SNB-19 CNS
[48] = tested on: SNB-75 CNS
[49] = tested on: SR leukemia
[50] = tested on: SW-620 colon
[51] = tested on: T-47D breast
[52] = tested on: TK-10 renal
[53] = tested on: U251 CNS
[54] = tested on: UACC-257 melanoma
[55] = tested on: UACC-62 melanoma
[56] = tested on: UO-31 renal

## O=c1oc2ccc(-c3ccc(F)cc3F)cc2c(=O)n1-c1ccc(F)c(F)c1
[1]
  GI50: 1670 nM
  TGI: > 50 µM
[2]
  GI50: 374 nM
  TGI: 1700 nM
[3]
  GI50: 1580 nM
  TGI: > 50 µM
[4]
  GI50: 1410 nM
  TGI: 4.88 µM
[5]
  GI50: 1350 nM
  TGI: 4.9 µM
[6]
  GI50: 963 nM
  TGI: 3.21 µM
[7]
  GI50: 1470 nM
  TGI: > 50 µM
[8]
  GI50: 8.25 µM
  TGI: 27.1 µM
[9]
  GI50: 1750 nM
  TGI: > 50 µM
[10]
  GI50: 1460 nM
  TGI: 7.35 µM
[11]
  GI50: 1700 nM
  TGI: 48.7 µM
[12]
  GI50: 1260 nM
  TGI: 5.43 µM
[13]
  GI50: 1340 nM
  TGI: 5.24 µM
[14]
  GI50: 1060 nM
  TGI: 3.07 µM
[15]
  GI50: 1410 nM
  TGI: 5.94 µM
[16]
  GI50: 389 nM
  TGI: 2280 nM
[17]
  GI50: 1570 nM
  TGI: > 50 µM
[18]
  GI50: 8.9 µM
  TGI: > 50 µM
[19]
  GI50: 1700 nM
  TGI: > 50 µM
[20]
  GI50: 1160 nM
  TGI: > 50 µM
[21]
  GI50: 1560 nM
  TGI: 5.26 µM
[22]
  GI50: 1610 nM
  TGI: 35.5 µM
[23]
  GI50: 874 nM
  TGI: 2510 nM
[24]
  GI50: 1220 nM
  TGI: > 50 µM
[25]
  GI50: 894 nM
  TGI: 2340 nM
[26]
  GI50: 1280 nM
  TGI: 5.46 µM
[27]
  GI50: 1480 nM
  TGI: 6.73 µM
[28]
  GI50: 1410 nM
  TGI: 6.24 µM
[29]
  GI50: 936 nM
  TGI: 2970 nM
[30]
  GI50: 1320 nM
  TGI: > 50 µM
[31]
  GI50: 666 nM
  TGI: 8.62 µM
[32]
  GI50: 1320 nM
  TGI: > 50 µM
[33]
  GI50: 1350 nM
  TGI: > 50 µM
[34]
  GI50: 1620 nM
  TGI: > 50 µM
[35]
  GI50: 1620 nM
  TGI: > 50 µM
[36]
  GI50: 1420 nM
  TGI: > 50 µM
[37]
  GI50: 589 nM
  TGI: 2400 nM
[38]
  GI50: 1270 nM
  TGI: 4.02 µM
[39]
  GI50: 1380 nM
  TGI: > 50 µM
[40]
  GI50: 1150 nM
  TGI: 3.21 µM
[41]
  GI50: 1690 nM
  TGI: 13.8 µM
[42]
  GI50: 797 nM
  TGI: 3.07 µM
[43]
  GI50: 1190 nM
  TGI: 8.2 µM
[44]
  GI50: 562 nM
  TGI: 1440 nM
[45]
  GI50: 1270 nM
  TGI: > 50 µM
[46]
  GI50: 1030 nM
  TGI: 4.29 µM
[47]
  GI50: 1610 nM
  TGI: > 50 µM
[48]
  GI50: 775 nM
  TGI: 2540 nM
[49]
  GI50: 1870 nM
  TGI: > 50 µM
[50]
  GI50: 1770 nM
  TGI: > 50 µM
[51]
  GI50: 418 nM
  TGI: 3.64 µM
[52]
  GI50: 1610 nM
  TGI: 16.9 µM
[53]
  GI50: 1530 nM
  TGI: > 50 µM
[54]
  GI50: 730 nM
  TGI: 4.04 µM
[55]
  GI50: 519 nM
  TGI: 1670 nM
[56]
  GI50: 1100 nM
  TGI: 4.67 µM
